Experimental data taken from patent publication US11207312B2, “Metallo-beta-lactamase inhibitors and methods of use thereof” (priority 2017, dated 2021).

What was measured:
[1] = test system: P. aeruginosa MB9799 (efflux-, IMP-1 plasmid); assay type: cell-based, Pseudomonas aeruginosa; settings: efflux − (MB9799) strain; imipenem at 2 μg/mL; in the presence of a class A, C, D serine β-lactamase inhibitor closely related to relebactam
In short: (§1)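 PAO1-derived isogenic pair (oprD+, inducible AmpC), efflux+ MB5919 or efflux− MB5890 parent, carrying an electroporated IMP-1 plasmid from a clinical isolate. Microbroth MIC with fixed imipenem and/or ceftazidime (usually CLSI breakpoint) plus fixed class A/C inhibitor; MBL inhibitor serially titrated, concentration restoring susceptibility recorded.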

[2] = test system: P. aeruginosa MB9798 (efflux+, IMP-1 plasmid); settings: for MB9798 MITC95 P. aeruginosa uM Efflux WT: efflux + (MB9798) strain, imipenem at 2 μg/mL, in the presence of a class A, C, D serine β-lactamase inhibitor closely related to relebactam; for Efflux ratio: fold difference between efflux+ (MB9798) and efflux− (MB9799) strains
In short: as §1

VIM-2 = VIM-2 (Escherichia coli, UniProt Q5U7L7); experiment: biochemical; settings: CCF2-FA fluorescence assay; read-out: VIM2 IC50
NDM-1 = NDM-1 (Klebsiella pneumoniae, UniProt C7C422); experiment: biochemical; assay type: biochemical; settings: CCF2-FA fluorescence assay, 2 hours at 25° C.
In short: (§2)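 In 100 mM phosphate pH 7 containing Tween-20 and ZnSO4, NDM-1 (1 pM), IMP-1 (2 pM) or VIM-1 (30 pM) hydrolysed 1.25 μM CCF2-FA over 2 hours at 25° C with inhibitor present. Readout was 405/460 nm fluorescence.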

VIM-1 = VIM-1 (Pseudomonas aeruginosa (strain ATCC 15692 / DSM 22644 / CIP 104116 / JCM 14847 / LMG 12228 / 1C / PRS 101 / PAO1), UniProt A0A0F7KYQ8); experiment: biochemical; settings: CCF2-FA fluorescence assay, 2 hours at 25° C.; read-out: VIM1 IC50
In short: as §2

IMP-1 = IMP-1 (Serratia marcescens, UniProt P52699); experiment: biochemical; settings: CCF2-FA fluorescence assay, 2 hours at 25° C.; read-out: IMP1 IC50
In short: as §2

[3] = test system: Escherichia coli expressing NDM-1 (CLB30016); assay type: cell-based; settings: with imipenem 1 μg/ml; 95% inhibition of bacterial growth
In short: (§3)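 Imipenem 1 μg/ml + inhibitor titration in cation-adjusted MHB (1.1× stock medium); overnight-cultured colonies suspended in saline, diluted 1:100. 35 °C, 22–24 h; absorbance read. MITC95 = lowest compound conc giving 95% growth inhibition.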

[4] = test system: Serratia marcescens expressing IMP-1 (CL5741); assay type: cell-based; settings: with imipenem 1 μg/ml; 95% inhibition of bacterial growth
In short: as §3

[5] = test system: Klebsiella pneumoniae expressing VIM-1 (IHMA599644); assay type: cell-based; settings: with imipenem 1 μg/ml; 95% inhibition of bacterial growth
In short: as §3

IMP-1, sequence (P52699 whole entry, looked up, species assumed): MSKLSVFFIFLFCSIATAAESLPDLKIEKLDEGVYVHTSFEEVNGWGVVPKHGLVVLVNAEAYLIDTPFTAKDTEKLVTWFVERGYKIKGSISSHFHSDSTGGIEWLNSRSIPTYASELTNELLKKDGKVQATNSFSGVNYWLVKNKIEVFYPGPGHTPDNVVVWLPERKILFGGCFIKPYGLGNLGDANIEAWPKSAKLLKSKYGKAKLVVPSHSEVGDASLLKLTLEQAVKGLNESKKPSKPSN
NDM-1, sequence (C7C422 whole entry, looked up, species assumed): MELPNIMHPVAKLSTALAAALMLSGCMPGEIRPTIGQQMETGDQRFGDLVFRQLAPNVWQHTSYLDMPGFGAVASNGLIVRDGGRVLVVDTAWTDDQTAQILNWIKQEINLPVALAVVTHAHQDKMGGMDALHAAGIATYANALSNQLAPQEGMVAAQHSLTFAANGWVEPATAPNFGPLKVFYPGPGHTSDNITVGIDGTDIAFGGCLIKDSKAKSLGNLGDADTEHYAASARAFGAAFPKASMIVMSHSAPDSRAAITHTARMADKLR

Row | Compound | MB9799 MITC95 P. aeruginosa uM Efflux Mutant [1] [µM] | MB9798 MITC95 P. aeruginosa uM Efflux WT [2] [µM] | Efflux ratio [2] | IC50 (VIM-2) [nM] | IC50 (NDM-1) [nM] | IC50 (VIM-1) [nM] | IC50 (IMP-1) [nM] | CLB30016 E. coli MITC95 NDM [3] [µM] | CL5741 S. marcescens MITC95 IMP [4] [µM] | IHMA599644 K. pneumoniae MITC95 VIM [5] [µM]
1 | COC1(CO)CCN(c2ccc(S(=O)(=O)N[C@H](C)CN)c(S(N)(=O)=O)c2-c2nn[nH]n2)CC1 [Example 19, (R)-N1-(1-aminopropan-2-yl)-4-(4-(hydroxymethyl)-4-methoxypiperidin-1-yl)-3-(2H-tetrazol-5-yl)benzene-1,2-disulfonamide] | 3.13 | 3.13 | 1.00 | 2.27 | 0.17 | 0.65 | 0.37 | 3.13 | 3.13 | 12.50
2 | NCC1CCCN(c2ccc(S(=O)(=O)NC[C@H](O)CN)c(S(N)(=O)=O)c2-c2nn[nH]n2)CC1 (stereo partly drawn) [Example 139, N1-((R)-3-amino-2-hydroxypropyl)-4-(4-(aminomethyl)azepan-1-yl)-3-(2H-tetrazol-5-yl)benzene-1,2-disulfonamide bis(2,2,2-trifluoroacetate)] | 0.78 | 1.56 | 2.00 | 4.52 | 18.2 | 0.39 | 18.5 | 0.78 | 0.78 | 1.56
3 | NS(=O)(=O)c1c(S(=O)(=O)N[C@@H]2CCNC2)ccc(N2CCC(CO)CC2=O)c1-c1nn[nH]n1 (stereo partly drawn) [Example 157, 4-(4-(hydroxymethyl)-2-oxopiperidin-1-yl)-N1-((R)-pyrrolidin-3-yl)-3-(2H-tetrazol-5-yl)benzene-1,2-disulfonamide] | 3.13 | 3.13 | 1.00 | 1.85 | 0.24 | 0.25 | 6.9 | 1.56 | 3.13 | 6.25
4 | NC[C@@H](O)CNS(=O)(=O)c1ccc(N2CCC3(CC2)CC3N)c(-c2nn[nH]n2)c1S(N)(=O)=O (stereo partly shown) [Example 12] | 0.78 | 1.56 | 2.00 | 17.6 | 1.51 | 1.48 | 4.08 | 0.78 | 1.56 | 1.56
5 | NCC1CCN(c2ccc(S(=O)(=O)N[C@H](CN)CO)c(S(N)(=O)=O)c2-c2nn[nH]n2)CC1 [Example 186, (R)-N1-(1-amino-3-hydroxypropan-2-yl)-4-(4-(aminomethyl)piperidin-1-yl)-3-(2H-tetrazol-5-yl)benzene-1,2-disulfonamide] | 0.78 | 1.56 | 2.00 | 68.7 | 18.7 | 2.85 | 40.6 | 3.13 | 1.56 | 1.56
6 | NS(=O)(=O)c1c(S(=O)(=O)N[C@@H]2CCNC2)ccc(N2CC[C@@H](O)C2)c1-c1nnn[nH]1 [Example 99, 4-[(3R)-3-hydroxypyrrolidin-1-yl]-N1-[(3R)-pyrrolidin-3-yl]-3-(1H-tetrazol-5-yl)benzene-1,2-disulfonamide] | 3.13 | 3.13 | 1.00 | 3.22 | 0.92 | 2.66 | 1.33 | 1.56 | 3.13 | 6.25
7 | NS(=O)(=O)c1c(S(=O)(=O)C2CNC2)ccc(N2CCCC(CO)C2)c1-c1nnn[nH]1 (stereo not shown) [Example 57, 6-(azetidin-3-ylsulfonyl)-3-[3-(hydroxymethyl)piperidin-1-yl]-2-(1H-tetrazol-5-yl)benzenesulfonamide] | 1.56 | 25.00 | 15.99 | 1.87 | 2.48 | 1.44 | 4.38 | 3.13 | 3.13 | 12.50
8 | NC(=O)C1CCN(c2ccc(S(=O)(=O)N[C@@H]3CCNC3)c(S(N)(=O)=O)c2-c2nnn[nH]2)CC1 [Example 94, 1-{4-[(3R)-pyrrolidin-3-ylsulfamoyl]-3-sulfamoyl-2-(1H-tetrazol-5-yl)phenyl}piperidine-4-carboxamide] | 3.13 | 3.13 | 1.00 | 1.18 | 0.18 | 0.27 | 0.5 | 3.13 | 6.25 | 6.25
9 | NC[C@@H](O)CNS(=O)(=O)c1ccc(N2CC[C@H](N)C2)c(-c2nn[nH]n2)c1S(N)(=O)=O [Example 126, N1-((R)-3-amino-2-hydroxypropyl)-4-((S)-3-aminopyrrolidin-1-yl)-3-(2H-tetrazol-5-yl)benzene-1,2-disulfonamide] | 3.13 | 6.25 | 2.00 | 32.5 | 200 | 7.7 | 124 | 1.56 | 3.13 | 0.78
10 | NS(=O)(=O)c1c(S(=O)(=O)N[C@@H]2CCNC2)ccc(N2CCC(CCO)CC2)c1-c1nnn[nH]1 [Example 98, 4-[4-(2-hydroxyethyl)piperidin-1-yl]-N1-[(3R)-pyrrolidin-3-yl]-3-(1H-tetrazol-5-yl)benzene-1,2-disulfonamide] | 3.13 | 3.13 | 1.00 | 0.59 | 0.08 | 0.15 | 0.13 | 12.50 | 6.25 | 12.50
11 | NCCN1CCN(c2ccc(S(=O)(=O)NC[C@H](O)CN)c(S(N)(=O)=O)c2-c2nnn[nH]2)CC1 [Example 51, (R)-N1-(3-amino-2-hydroxypropyl)-4-(4-(2-aminoethyl)piper-azin-1-yl)-3-(1H-tetrazol-5-yl)benzene-1,2-disulfonamide] | 0.39 | 0.78 | 2.00 | 3.07 | 1.4 | 0.29 | 1.92 | 0.78 | 0.39 | 0.78
12 | NCCNS(=O)(=O)c1ccc(N2CCN(CCCO)CC2)c(-c2nnn[nH]2)c1S(N)(=O)=O [Example 41, N1-(2-aminoethyl)-4-(4-(3-hydroxypropyl)piperazin-1-yl)-3-(1H-tetrazol-5-yl)benzene-1,2-disulfonamide] | 0.39 | 1.56 | 4.00 | 14.8 | 5.98 | 11.5 | 6.04 | 0.10 | 0.10 | 1.56
13 | CN(C)C1(C)CN(c2ccc(S(=O)(=O)N[C@@H]3CCNC3)c(S(N)(=O)=O)c2-c2nnn[nH]2)C1 [Example 114, 4-[3-(dimethylamino)-3-methylazetidin-1-yl]-N1-[(3R)-pyrrolidin-3-yl]-3-(1H-tetrazol-5-yl)benzene-1,2-disulfonamide] | 3.13 | 12.50 | 4.00 | 4.27 | 12 | 1.24 | 50.5 | 1.56 | 3.13 | 3.13
